Assay results: patent publication US12642803B2, “Pharmaceutical aqueous formulation comprising 1-(4-{[4-(dimethylamino)piperidin-1-yl]carbonyl}phenyl)-3-[4-(4,6-dimorpholin-4-yl-1,3,5-triazin-2-yl)phenyljurea” (PFIZER INC., priority 2017, dated 2026)

Experiments:
[1] = Visual analysis (European Pharmacopoeia Method 2.9.20) and OPM analysis for crystallites or particles (clear solution); assay type: physicochemical; details: for Solution concentration at which the necessary clear solutions are not obtained, or are not obtained consistently: pH required for intravenous administration
Text: A “clear solution” is defined herein as a visually clear solution, which may bear a solution opalescence, that is essentially free from any visible particulates that can be observed on a visual inspection. Generally, if any particulate matter is observed, the formulation is not suitable for intravenous administration and should not be utilised as occlusion of blood vessels may occur. Accordingly, in view of the qualitative nature of the visual test, the term “essentially free from any visible particulates” is usually applied when no visible particulate matter is observed.
The visual inspection can be conducted in accordance with the method defined in European Pharmacopoeia Method 2.9.20 entitled “Particulate contamination: visible particles”. This method determines particulate contamination of injections and infusions by extraneous, mobile, undissolved particles, other than gas bubbles, that may be present in the solutions. […]
A sample of the formulation was analysed in accordance with the visual method defined in European Pharmacopoeia Method 2.9.20 (using a Verivide (trade mark) light cabinet and a light meter reading of 3250 lux against a matt black panel and a white panel) to determine if crystallites or particles were present. […]
A sample of the formulation was placed on a clean glass microscopy slide and covered with a glass cover slip. It was then analysed by OPM using both non-polarised and cross-polarised light under a Nikon LV 100POL (trade mark) microscope with a 10× magnification lens and a 10× magnification eyepiece to determine if crystallites or particles were present. The image was recorded using a DFK 23UP031 TIS USB 3.0 CMOS (trade mark) Colour Industrial Camera 5MP 1/2,5″ and image capture software. […]
These Examples were analysed by the visual method defined in European Pharmacopoeia Method 2.9.20 and the OPM method both as described in Example 1.
The Examples shown in the following Table were analysed by the visual method defined in European Pharmacopoeia Method 2.9.20 and the OPM method both as described in Example 1. […]

[2] = Chemical and physical storage stability of the crystalline free base; assay type: physicochemical; details: crystalline form, 25° C. and 60% Relative Humidity (RH)
Procedure: (§1) 1-(4-{[4-(Dimethylamino)piperidin-1-yl]carbonyl}phenyl)-3-[4-(4,6-dimorpholin-4-yl-1,3,5-triazin-2-yl)phenyl]urea may be prepared in crystalline form and is chemically and physically stable at 25° C. and 60% Relative Humidity (RH) for up to 3 years in this form.

[3] = Water solubility of the free base; assay type: physicochemical; details: for an aqueous solution formulation for intravenous or parenteral administration at the therapeutic dosage levels required
Procedure: as §1

[4] = only with lactic acid and orthophosphoric acid, of ten acids tested; WO2016/097949; cited from earlier work

Q: Which results are given for `CN(C)C1CCN(C(=O)c2ccc(NC(=O)Nc3ccc(-c4nc(N5CCOCC5)nc(N5CCOCC5)n4)cc3)cc2)CC1` [1-(4-{[4-(Dimethylamino)piperidin-1-yl]carbonyl}phenyl)-3-[4-(4,6-dimorpholin-4-yl-1,3,5-triazin-2-yl)phenyl]urea]?
A: Solution concentration at which the necessary clear solutions are not obtained, or are not obtained consistently ([1]; formulations comprising ethanesulphonic acid): ≥ 35 mg/mL; Solution concentration at which the necessary clear solutions are not obtained, or are not obtained consistently ([1]; formulations comprising methanesulphonic acid): ≥ 35 mg/mL; Solution concentration achieved as clear, essentially particle-free solution ([1]; use of methanesulphonic acid and ethanesulphonic acid, free base concentration): up to 30 mg/ml; Time for which chemically and physically stable [2]: up to 3 years; Water solubility [3]: insufficiently water soluble; Concentration achieved as a clear solution [4]: ≥ 3000 µg/mL
